For data set [1], the system named is Hela-141 cells. The data set is described as follows: Cell viability / apoptosis of Hela-141 cells after transfection. The data set is classed as cell-based. The protocol:
(§1) The miRNA triggers were assayed for cytotoxicity and apoptosis induction, using the CCK-8 (Cell Counting Kit-8) (Dojindo, Kumamoto, Japan) according to the manufacturer's instruction. Cells were incubated in 96-well plates (5×10^3 cells/well) at 37° C. for 24 hours under a 5% CO2 atmosphere, followed by transfection. Three days after transfection, the medium was removed. A 10-fold dilution of CCK-8 solution in DMEM was added to the cells which were then incubated at 37° C. for 2 hours. After incubation, absorbance was read at 450 nm on Tecan Infinite M200 pro microplate reader (Mnnedorf, Switzerland).
(§2) The linear miRNA triggers or siRNAs (siLuc and siMcl-1) prepared above were transfected into Hela, Hela-141, and Hela-200c cells which were then measured for cell viability. The results are depicted in FIG. 15.
(§3) The hairpin miRNA triggers prepared above were transfected into Hela and Hela-141 cells which were then assayed for apoptosis. As a control, the siRNA (siMcl-1; Table 14) which can repress the expression of mcl-1 was transfected to Hela and Hela-141 cells and measured for apoptotic activity.

In data set [2] the test system is Hela-200c cells. The experiment in a line: Cell viability / apoptosis of Hela-200c cells after transfection. The data set is classed as cell-based. The protocol: as §1, §2
The subject of data set [3] is Mcl-1 protein. The experiment in a line: Western blotting of Mcl-1 protein in Hela-141 cells. It is filed as cell-based. To be noted: 5 to 120 nM. The procedure:
(§4) miRNA triggers were transfected into cells in the same manner as in Reference Example 4. After 72 hours, the cells were collected using a cell scraper and lysed with a RIPA buffer (NaCl 150 mM, EDTA 5 mM, Tris 50 mM, NP-40 1.0%, sodium deoxycholate 0.5%, SDS 0.1%). The cell lysate was sonicated 15 times, each for 20 sec, with a halt for 30 sec every sonication. Following centrifugation at 5,000 g for 5 min, the supernatant was taken and used to extract proteins therefrom. A total of 30-40 μg of protein sample was separated in 10-15% SDS-PAGE gel and transferred onto a PVDF membrane through a semi-dry blotting system. The membrane was blocked for 1 hour in 5% skimmed milk and incubated for 2 hours with a 1,000-fold dilution of a primary antibody in, 1% skimmed milk. […] The membrane incubated with the secondary antibody was washed three times with 1×PBST for 10 min each wash, and then reacted with Clarity Western ECL Substrate (#1705061, Bio-Rad), after which images were obtained and analyzed using ChemiDoc (Bio-rad, Hercules, USA).
A linear miRNA trigger (Mcl-1-141-141; Table 15) that could bind to miR-141 and target mcl-1 was prepared while a linear miRNA trigger (Luc-141-141; Table 9) that could bind to miR-141 and target Luc (luciferase) was used as a control. […] Then, proteins were extracted from the Hela-141 cells and quantitatively analyzed for Mcl-1 protein level by western blotting. […]

The subject of data set [4] is breast cancer cell line MDA-MB-231. The experiment in a line: Cell viability of MDA-MB-231 after transfection. The settings on record: Example 8-1. The data set is classed as cell-based. The procedure: as §1
The seven linear miRNA triggers prepared above and the positive control siRNA(siBcl-xL) capable of binding to bcL-xL were transfected into the breast cancer cell line MDA-MB-231 in which miR-222 is overexpressed. Cell viability was measured and is depicted in FIG. 32a.
Linear miRNA triggers that could bind to miR-222 and target bcl-xL and mcl-1, respectively, were prepared and transfected alone or in combination into the breast cancer cell line MDA-MB-231. Cell viability was measured and the measurements are depicted in FIG. 34. siRNAs against Mcl-1 and Bcl-xL were used as controls. Sequences are listed in Table 23 for the linear miRNA trigger prepared above, in Tables 22 and 9 for the controls Luc-Luc-Luc and luc-222-222, respectively, and in Table 13 for the siRNAs. Every nucleotide of the triggers and the controls was chemically modified with 2′-OMe.
Linear miRNA triggers that could bind to miR-141 or let7f and target Bcl-xL or Mcl-1 were prepared and transfected alone or in combination into the breast cancer cell line MDA-MB-231 which was then measured for cell viability. […]
The hairpin miRNA triggers prepared above were transfected into MDA-MB-231 and MDA-MB-453 cells which were then measured for cell viability. […]
Hairpin miRNA triggers which could bind to miR-222 or let-7f and target mcl-1 or bcl-xL were prepared and transfected into the breast cancer cell line MDA-MB-231 which was then measured for cell viability. […]

Data set [5] deals with breast cancer cell line MDA-MB-453. The data set is described as follows: Cell viability of MDA-MB-453 after transfection. It is filed as cell-based. The settings on record: miR-222 not endogenous. The protocol: as §1
(§5) The selected linear miRNA triggers (bcl-xL(1)_222_222 and bcl-xL(2)_222_222) were transfected into the breast cancer cell line MDA-MB-453 to which miR-222 is not endogenous. Cell viability, and the mRNA and protein expression levels of the target gene (bcl-xL) were measured and the results are depicted in FIGS. 33a to 33c.

Data set [6] relates to bcl-xL mRNA. The experiment in a line: bcl-xL mRNA expression in MDA-MB-453 cells. The data set is classed as cell-based. The procedure: In the same manner as in Reference Example 4, miRNA triggers were transfected into cells. After 48 hours, total RNA was extracted using TRIzol (Thermo Fisher Scientific) according to the manufacturer's instruction. The purified RNA was treated with DNase I and then reverse transcribed in the presence of RevertAid reverse transcriptase (Thermo Fisher Scientific), with random hexamers (Thermo Fisher Scientific) serving as primers. For use in amplification of target genes, primers for target genes were added, together with the cDNA, to the SYBR Green PCR master mix (Thermo Fisher Scientific). RT-qPCR was conducted on a StepOnePlus real-time PCR system. Cq values obtained from this analysis was quantitatively analyzed based on the 2^−ΔΔC(t) method.
as §5

Data set [7] has as its system Bcl-xL. The experiment in a line: bcl-xL protein expression in MDA-MB-453 cells. It is filed as cell-based. The protocol: as §4, §5
For data set [8], the system named is MCF-7 breast cancer cells. The data set is described as follows: Cell viability of MCF-7 after transfection. It is filed as cell-based. To be noted: siRNA 60 nM. The protocol:
as §1
An siRNA targeting bcl-2, bcl-xL, or mcl-1 was transfected into MCF-7 breast cancer cells and PANC-1 pancreatic cancer cells. By using qRT-PCR, establishment was made of a condition under which the expression of each target gene is decreased by 80% or more (transfection was performed at a concentration of 60 nM with the aid of Lipofectamine). […] Under the same condition of decreasing the expression of each target gene by 80% or more, the cells transfected with the siRNAs were measured for apoptosis, and the results are depicted in FIGS. 14a and 14b.
Linear miRNA triggers that could bind to miR-141 or let7f and target bcl-xL or mcl-1 were prepared and transfected alone or in combination into the breast cancer cell line MCF-7 which was then measured for cell viability. […]

The test system of data set [9] is Hela cells. The experiment in a line: Cell viability / apoptosis of Hela cells after transfection. It is filed as cell-based. The procedure:
as §1, §2, §3

The subject of data set [10] is miRNA-141 and PKR mRNA (2). The data set is described as follows: PAGE assay of dumbbell miRNA trigger binding to miRNA and target mRNA. To be noted: 100 nM each, 37° C., 1 hour. The procedure:
To a buffer (1×PBS buffer, +5 mM MgCl2, 137 mM NaCl, 10 mM PO4, 2.7 mM KCl, 5 mM MgCl2; pH 7.4) containing 100 nM of the dumbbell miRNA trigger (DP) prepared above, 100 nM miRNA and/or 100 nM target mRNA was added, followed by incubation at 37° C. for 1 hour. Each sample was loaded to a PAGE gel and run. The results are depicted in FIG. 39b.

The values that follow come from US20230129651A1, “HAIRPIN STRUCTURE NUCLEIC ACID MOLECULES CAPABLE OF MODULATING TARGET GENE EXPRESSION AND USES THEREOF” (KOREA ADVANCED INSTITUTE OF SCIENCE AND TECHNOLOGY, priority 2021, published 2023).

“Also recorded” adds a separate entry of the source.

“Mcl-1_141_141: linear miRNA trigger binding miR-141 and targeting Mcl-1 gene; SEQ ID NO 65 (110 in Table 24) (CCAUCUUUACCUCACAGUGUUACCAUCUUUACCUCACAGUGUUACCGAACUACGUAGC; all 2'-O-methyl, backbone not given here)”: in [1], the apoptosis induced result is reported as “about 40%”. Moreover, in [2], the “apoptosis / cell viability (in words)” value is reported as “no significant influence on cell viability”. Further, the “Mcl-1 protein level compared to control Luc-141-141” value in data set [3] was “significantly decreased in Mcl-1 protein level”.

Consider “bcl-xL(2)_222_222: linear miRNA trigger binding miR-222 and knocking down bcl-xL; SEQ ID NO 107 (ACCCAGUAGCCAGAUGUAGCUACCCAGUAGCCAGAUGUAGCUUACCUGCCAGCCUCCUU; all 2'-O-methyl, backbone not given here)”, for which the “killing of breast cancer cells (cell viability)” value in data set [4] is “effectively kill breast cancer cells”. For the same molecule, the cell viability entry in data set [5] was “did not significantly change”. Besides, the “mRNA expression level of target bcl-xL” value in data set [6] is “did not significantly change”. Also, the “protein expression level of target bcl-xL” value in data set [7] was “did not significantly change”.

For “siMcl-1: siRNA targeting mcl-1; SEQ ID NO 64 (AAAUUCGAUACUUCCUUCG; listed as RNA, chemistry not given here) [reference compound]”, in [8], the “cell viability / apoptosis after siRNA (in words)” value is on record as “decreased in cell viability”. The results for the “apoptosis / cell viability (in words)” value in data set [9], in data set [1] and in data set [2] were “induced apoptosis; also recorded: brought about an apoptotic effect”, “induced apoptosis; also recorded: brought about an apoptotic effect” and “induced apoptosis”, respectively.

B1: bcl-xL(1)_222_222: linear miRNA trigger binding miR-222 and knocking down bcl-xL; SEQ ID NO 106 (nucleic acid)
chain: ACCCAGUAGCCAGAUGUAGCUACCCAGUAGCCAGAUGUAGCUUCUCCUUCCUGCCCUUCCU
modifications: all 2'-O-methyl, backbone not given here
For the molecule B1, in data set [4], the “killing of breast cancer cells (cell viability)” value is recorded as “effectively kill breast cancer cells”. Also, in [5], the cell viability entry was “did not significantly change”. Also, the “mRNA expression level of target bcl-xL” value in data set [6] is “did not significantly change”. The “protein expression level of target bcl-xL” value in [7] is “did not significantly change”.

B2: DB_PKRS20_141: dumbbell-shaped miRNA trigger, 20-nt mRNA-binding portion, binds miRNA-141 and PKR mRNA; SEQ ID NO 130 (nucleic acid)
chain: CCCCCCGAATGAGAAATACCATCTTTACCAGACAGTGTTATATTTCTCATTCCCTTCCTTNNAAGGAAGGGGGGGG
modifications: listed as DNA, chemistry not given here
Consider B2, for which the “binding to target mRNA in the absence of the miRNA” value in data set [10] (lane 3) is “did not bind to a target mRNA”. In addition, the “binding to miRNA and/or target mRNA in the presence of the miRNA” value in data set [10] (lanes 2 and 4) is “could bind to a miRNA and/or target mRNA only in the presence of the miRNA”.
